Laboratory results from ChEMBL document CHEMBL1141912, “Novel beta-(imidazol-4-yl)-beta-amino acids: solid-phase synthesis and study of their inhibitory activity against geranylgeranyl protein transferase type I” (Bioorg Med Chem Lett, 2005).

The compounds below were run against T1, Geranylgeranyl transferase type I (Homo sapiens, UniProt P49354+P53609) (assay: Percent inhibition of Geranylgeranyl transferase type I at 10 uM).
Type: protein-complex assay

| SMILES | inhibition |
| --- | --- |
| O=C(O)CC(c1c[nH]cn1)N(CCCCCCO)Cc1c[nH]c(-c2ccccc2)n1 (centres undefined) | 0% |
| O=C(O)CC(c1c[nH]cn1)N(CCc1cccs1)Cc1nc[nH]n1 (centres undefined) | 16% |
| CC(C)CCN(Cc1ccccn1)C(CC(=O)O)c1c[nH]cn1 (centres undefined) | 10% |
| O=C(O)CC(c1c[nH]cn1)N(CC(c1ccccc1)c1ccccc1)C1CCN(Cc2ccccc2)C1 (centres undefined) | 18% |
| CCCCOc1ccc(S(=O)(=O)N(CC2CCCCC2)C(CC(=O)O)c2c[nH]cn2)cc1 (centres undefined) | 30% |
| O=C(O)CC(c1c[nH]cn1)N(CCc1ccc(F)cc1)Cc1c[nH]c(-c2ccccc2)n1 (centres undefined) | 35% |
| CCCCCCN(Cc1nc[nH]n1)C(CC(=O)O)c1c[nH]cn1 (centres undefined) | 3% |
| O=C(O)CC(NC1CCN(Cc2ccccc2)CC1)c1c[nH]cn1 (centres undefined) | 21% |
| O=C(O)CC(c1c[nH]cn1)N(Cc1nc[nH]n1)C1CCN(Cc2ccccc2)CC1 (centres undefined) | 11% |
| O=C(O)CC(c1c[nH]cn1)N(Cc1nc[nH]n1)CC1CCCCC1 (centres undefined) | 8% |
| O=C(O)CC(c1c[nH]cn1)N(CCc1ccc(F)cc1)S(=O)(=O)c1cc(Cl)sc1Cl (centres undefined) | 53% |
| O=C(O)CC(c1c[nH]cn1)N(CCc1cccs1)Cc1ccccn1 (centres undefined) | 11% |
| O=C(O)CC(c1c[nH]cn1)N(CCCc1ccccc1)Cc1cccc2ccccc12 (centres undefined) | 74% |
| O=C(O)CC(c1c[nH]cn1)N(CC1CCCCC1)S(=O)(=O)c1cc(Cl)sc1Cl (centres undefined) | 21% |

The next lines start with the values.

| inhibition | SMILES |
| --- | --- |
| 40% | CCCCCCCN(Cc1ccc(Oc2ccccc2)cc1)Cc1c[nH]cn1 |
| 88% | Brc1ccc(CCN(Cc2ccc(Oc3ccccc3)cc2)Cc2c[nH]cn2)cc1 |
| 72% | Cc1ccc(CCN(Cc2ccc(Oc3ccccc3)cc2)Cc2c[nH]cn2)cc1 |
| 77% | Brc1ccc(CCN(Cc2ccc(-c3ccccc3)cc2)Cc2c[nH]cn2)cc1 |
| 23% | c1cncc(CN(Cc2c[nH]cn2)Cc2ccco2)c1 |
| 69% | Brc1ccc(CCN(Cc2ccc3ccccc3c2)Cc2c[nH]cn2)cc1 |
| 78% | Fc1ccc(CCN(Cc2ccc(Oc3ccccc3)cc2)Cc2c[nH]cn2)cc1 |
| 24% | Cc1ccccc1CN(Cc1ccc(C(C)(C)C)cc1)Cc1c[nH]cn1 |
| 78% | CCCCOc1ccc(S(=O)(=O)N(CCc2ccc(F)cc2)C(CC(=O)O)c2c[nH]cn2)cc1 (centres undefined) |
| 0% | O=C(O)CC(c1c[nH]cn1)N(CCCCCCO)CC(c1ccccc1)c1ccccc1 (centres undefined) |

Each compound was assayed against Protein farnesyltransferase (Homo sapiens, UniProt P49354+P49356) (assay: Inhibition of Farnesyltransferase).
Type: protein-complex assay

| IC50 | SMILES |
| --- | --- |
| > 10000 nM | Brc1ccc(CCN(Cc2ccc(Oc3ccccc3)cc2)Cc2c[nH]cn2)cc1 |
| > 10000 nM | Fc1ccc(CCN(Cc2ccc(Oc3ccccc3)cc2)Cc2c[nH]cn2)cc1 |

The compounds below were run against T1, Geranylgeranyl transferase type I (assay: Inhibition of Geranylgeranyl transferase type I).
Type: protein-complex assay

| SMILES | IC50 |
| --- | --- |
| O=C(O)CC(c1cnc[nH]1)N(CCc1cccs1)Cc1ccc(-c2ccccc2)cc1 (centres undefined) | 1070 nM |
| COC(=O)C(CC(C)C)NC(=O)c1ccc(NCC(N)CS)cc1-c1cccc2ccccc12 (centres undefined) | 150 nM |
| O=C(O)CC(c1cnc[nH]1)N(CCc1ccc(F)cc1)Cc1ccc(-c2ccccc2)cc1 (centres undefined) | 1100 nM |
| CCCCOc1ccc(S(=O)(=O)N(CCc2ccc(F)cc2)C(CC(=O)O)c2cnc[nH]2)cc1 (centres undefined) | 1070 nM |

More lines, now with the values ahead:

| IC50 | SMILES |
| --- | --- |
| 90 nM | O=C(O)CC(c1cnc[nH]1)N(CCc1ccc(F)cc1)Cc1ccc(Oc2ccccc2)cc1 (centres undefined) |
| 256 nM | Brc1ccc(CCN(Cc2ccc(Oc3ccccc3)cc2)Cc2c[nH]cn2)cc1 |
| 860 nM | O=C(O)CC(c1cnc[nH]1)N(CCCCc1ccccc1)Cc1ccc(Oc2ccccc2)cc1 (centres undefined) |
| 460 nM | Fc1ccc(CCN(Cc2ccc(Oc3ccccc3)cc2)Cc2c[nH]cn2)cc1 |
